pEC50: −log10 of the molar value.
The molecules below were run on HBV rcDNA in HepDE19 cells (assay: HepDE19 assay with bDNA quantitation of HBV rcDNA). Conditions: HepDE19 cells, 7 day incubation, rcDNA by Quantigene 2.0 bDNA assay; read-out: DE-19 bDNA EC50.
Assay type: cell-based, hepatitis B virus (HBV)
Method: HepDE19 Assay with bDNA Quantitation of HBV rcDNA:
HepDE19 cell culture system is a HepG2 (human hepatocarcinoma) derived cell line that supports HBV DNA replication and cccDNA formation in a tetracycline (Tet)-regulated manner and produces HBV rcDNA and a detectable reporter molecule dependent on the production and maintenance of cccDNA (Guo, et al., 2007, J. Virol. 81:12472-12484).
HepDE19 (50,000 cells/well) were plated in 96 well collagen-coated tissue-culture treated microtiter plates in DMEM/F12 medium supplemented with 10% fetal bovine serum, 1% penicillin-streptomycin and 1 μg/mL tetracycline and incubated in a humidified incubator at 37° C. and 5% CO2 overnight. Next day, the cells were switched to fresh medium without tetracycline and incubated for 4 hours at 37° C. and 5% CO2. The cells were treated with fresh Tet-free medium with compounds at concentrations starting at 25 μM and a serial, ½ log, 8-point, titration series in duplicate. The final DMSO concentration in the assay was 0.5%. The plates were incubated for 7 days in a humidified incubator at 37° C. and 5% CO2. Following a 7 day-incubation, the level of rcDNA present in the inhibitor-treated wells was measured using a Quantigene 2.0 bDNA assay kit (Affymetrix, Santa Clara, Calif.) with HBV specific custom probe set and manufacturers instructions. Concurrently, the effect of compounds on cell viability was assessed using replicate plates, plated at a density of 5,000 cells/well and incubated for 4 days, to determine the ATP content as a measure of cell viability using the cell-titer glo reagent (CTG; Promega Corporation, Madison, Wis.) as per manufacturer's instructions. The plates were read using a Victor luminescence plate reader (PerkinElmer Model 1420 Multilabel counter) and the relative luminescence units (RLU) data generated from each well was calculated as % inhibition of the untreated control wells and analyzed using XL-Fit module in Microsoft Excel to determine EC50 and EC90 (bDNA) and CC50 (CTG) values using a 4-parameter curve fitting algorithm.
Representative compounds of the invention were tested for their ability to inhibit formation of relaxed circular DNA (rcDNA) in a HepDE19 assay, as described elsewhere herein.
Molecule COC1CCOc2c(C(=O)Nc3ccc(F)c(F)c3)cccc21 (single isomer, unassigned) [Compound 6, N-(3,4-difluorophenyl)-4-methoxychromane-8-carboxamide] has a pEC50 of 5.37.
COC1CCOc2c(C(=O)Nc3ccc(F)c(F)c3)cccc21 (single isomer, unassigned) [Compound 7, N-(3,4-difluorophenyl)-4-methoxychromane-8-carboxamide] gave a pEC50 of 5.74.
O=C(Nc1ccc(F)c(F)c1)c1cccc2c1OCCC2c1ccncc1 (single isomer, unassigned) [Compound 70, N-(3,4-Difluorophenyl)-4-(pyridin-4-yl)chromane-8-carboxamide] showed a pEC50 of 4.64.
In the case of O=C(N[C@H]1CCOc2c(C(=O)Nc3ccc(F)c(F)c3)cccc21)OCC1CCCCN1 (single isomer, unassigned) [Compound 86], the pEC50 was 4.82.
Molecule O=C(N[C@H]1CCOc2c(C(=O)Nc3ccc(F)c(F)c3)cccc21)OCC1CCCNC1 (single isomer, unassigned) [Compound 94] has a pEC50 of 4.66.
CN1CCCC(COC(=O)N[C@H]2CCOc3c(C(=O)Nc4ccc(F)c(F)c4)cccc32)C1 (single isomer, unassigned) [Compound 99] gave a pEC50 of 4.60.
Molecule O=C(N[C@H]1CCOc2c(C(=O)Nc3ccc(F)c(F)c3)cccc21)OCC1CCNC1 (single isomer, unassigned) [Compound 109] has a pEC50 of 4.68.
CNC(=O)CC1CCOc2c(C(=O)Nc3ccc(F)c(F)c3)cccc21 (single isomer, unassigned) [Compound 132, N-(3,4-difluorophenyl)-4-(2-(methylamino)-2-oxoethyl) chromane-8-carboxamide] gave a pEC50 of 4.68.
CN1CCC(NC(=O)OCc2ccccn2)c2cccc(C(=O)Nc3ccc(F)c(F)c3)c21 (single isomer, unassigned) [Compound 180, Pyridin-2-ylmethyl (8-((3,4-difluorophenyl)carbamoyl)-1-methyl-1,2,3,4-tetrahydroquinolin-4-yl)carbamate] was tested, and the pEC50 was 4.82.
Work on CN1CCC(NC(=O)OCc2ccccn2)c2cccc(C(=O)Nc3ccc(F)c(F)c3)c21 (single isomer, unassigned) [Compound 181, Pyridin-2-ylmethyl (8-((3,4-difluorophenyl)carbamoyl)-1-methyl-1,2,3,4-tetrahydroquinolin-4-yl)carbamate] yielded a pEC50 of 5.60.
CN1CCC(NC(=O)OCc2ccccn2)c2cccc(C(=O)Nc3ccc(F)c(Cl)c3)c21 (single isomer, unassigned) [Compound 182, Pyridin-2-ylmethyl (8-((3-chloro-4-fluorophenyl)carbamoyl)-1-methyl-1,2,3,4-tetrahydroquinolin-4-yl)carbamate] gave a pEC50 of 4.92.
Molecule CN1CCC(NC(=O)OCc2ccccn2)c2cccc(C(=O)Nc3ccc(F)c(Cl)c3)c21 (single isomer, unassigned) [Compound 183, Pyridin-2-ylmethyl (8-((3-chloro-4-fluorophenyl)carbamoyl)-1-methyl-1,2,3,4-tetrahydroquinolin-4-yl)carbamate] has a pEC50 of 6.14.

Same assay, conditions: Hepatitis B virus, HepDE19, 168 h, HepDE19 cells, 7 day incubation, rcDNA by Quantigene 2.0 bDNA assay; read-out: DE-19 bDNA EC50
In the case of O=C(Nc1ccc(F)c(F)c1)c1cccc2c1OCCC2c1ccncc1 (single isomer, unassigned) [Compound 69, N-(3,4-Difluorophenyl)-4-(pyridin-4-yl)chromane-8-carboxamide], the pEC50 was 4.92.
O=C(N[C@H]1CCOc2c(C(=O)Nc3ccc(F)c(F)c3)cccc21)OCC1CCCCN1 (single isomer, unassigned) [Compound 85] was tested, and the pEC50 was 4.72.
O=C(N[C@H]1CCOc2c(C(=O)Nc3ccc(F)c(F)c3)cccc21)OCC1CCCNC1 (single isomer, unassigned) [Compound 87] was tested, and the pEC50 was 4.80.
Work on CN1CCCC(COC(=O)N[C@H]2CCOc3c(C(=O)Nc4ccc(F)c(F)c4)cccc32)C1 (single isomer, unassigned) [Compound 98] yielded a pEC50 of 4.64.
In the case of O=C(N[C@H]1CCOc2c(C(=O)Nc3ccc(F)c(F)c3)cccc21)OCC1CCNC1 (single isomer, unassigned) [Compound 108], the pEC50 was 4.68.
In the case of CNC(=O)CC1CCOc2c(C(=O)Nc3ccc(F)c(F)c3)cccc21 (single isomer, unassigned) [Compound 131, N-(3,4-difluorophenyl)-4-(2-(methylamino)-2-oxoethyl) chromane-8-carboxamide], the pEC50 was 4.70.
Molecule CC(C)NS(=O)(=O)N[C@H]1CCOc2c(C(=O)Nc3ccc(F)c(F)c3)cccc21 (stereo in doubt) [Compound 15] has a pEC50 of 5.01.
Work on O=C(Nc1cccc(Cl)c1)c1cccc2c1OCCC2 [Compound 1, N-(3-chlorophenyl)chromane-8-carboxamide] yielded a pEC50 of 4.64.
Molecule O=C1CCOc2c1cccc2C(=O)Nc1ccc(F)c(F)c1 [Compound 2, N-(3,4-difluorophenyl)-4-oxochromane-8-carboxamide] has a pEC50 of 5.64.
O=C(Nc1ccc(F)c(F)c1)c1cccc2c1OCCC2O (stereo not drawn) [Compound 3, N-(3,4-difluorophenyl)-4-hydroxychromane-8-carboxamide] showed a pEC50 of 5.47.
O=C(Nc1ccc(F)c(F)c1)c1cccc2c1OCC[C@H]2O [Compound 4, (R)-N-(3,4-difluorophenyl)-4-hydroxychromane-8-carboxamide] was tested, and the pEC50 was 5.66.
O=C(Nc1ccc(F)c(F)c1)c1cccc2c1OCC[C@@H]2O [Compound 5, (S)-N-(3,4-difluorophenyl)-4-hydroxychromane-8-carboxamide] gave a pEC50 of 5.41.
CCC(=O)N[C@H]1CCOc2c(C(=O)Nc3ccc(F)c(F)c3)cccc21 [Compound 10, N-(3,4-Difluorophenyl)-4-propionamidochromane-8-carboxamide] was tested, and the pEC50 was 5.24.
O=C(N[C@H]1CCOc2c(C(=O)Nc3ccc(F)c(F)c3)cccc21)c1cncs1 [Compound 12, N-(8-((3,4-difluorophenyl)carbamoyl)chroman-4-yl)thiazole-5-carboxamide] gave a pEC50 of 5.08.

Same assay, conditions: Hepatitis B virus, HepDE19, 168 h, read-out: DE-19 bDNA EC50, HepDE19 cells, 7 day incubation, rcDNA by Quantigene 2.0 bDNA assay
For CC(=O)N1CCCC1COC(=O)N[C@H]1CCOc2c(C(=O)Nc3ccc(F)c(F)c3)cccc21 (single isomer, unassigned) [Compound 139], the pEC50 was 5.34.
CC(=O)N1CCC(COC(=O)N[C@H]2CCOc3c(C(=O)Nc4ccc(F)c(F)c4)cccc32)C1 (single isomer, unassigned) [Compound 144] gave a pEC50 of 5.27.
With COC(=O)NC1CCN(C)c2c(C(=O)Nc3ccc(F)c(F)c3)cccc21 (single isomer, unassigned) [Compound 177, Methyl (8-((3,4-difluorophenyl)carbamoyl)-1-methyl-1,2,3,4-tetrahydroquinolin-4-yl)carbamate] the pEC50 was 5.64.
COC(=O)N[C@H]1CCOc2c(C(=O)Nc3ccc(F)c(F)c3)cccc21 [Compound 8, methyl (S)-(8-((3,4-difluorophenyl)carbamoyl)chroman-4-yl)carbamate] showed a pEC50 of 5.64.
Work on COC(=O)N[C@@H]1CCOc2c(C(=O)Nc3ccc(F)c(F)c3)cccc21 [Compound 11, methyl (R)-(8-((3,4-difluorophenyl)carbamoyl)chroman-4-yl)carbamate] yielded a pEC50 of 4.68.

Same assay, conditions: read-out: DE-19 bDNA EC50; HepDE19 cells, 7 day incubation, rcDNA by Quantigene 2.0 bDNA assay
Work on O=C(N[C@H]1CCOc2c(C(=O)Nc3ccc(F)c(F)c3)cccc21)OC1CCOC1 (single isomer, unassigned) [Compound 25, Tetrahydrofuran-3-yl-(8-((3,4-difluorophenyl)carbamoyl)chroman-4-yl)carbamate] yielded a pEC50 of 4.64.
In the case of O=C(N[C@H]1CCOc2c(C(=O)Nc3ccc(F)c(F)c3)cccc21)OC1CCOC1 (single isomer, unassigned) [Compound 26, Tetrahydrofuran-3-yl-(8-((3,4-difluorophenyl)carbamoyl)chroman-4-yl)carbamate], the pEC50 was 5.13.
Molecule CC(=O)N1CCC(COC(=O)N[C@H]2CCOc3c(C(=O)Nc4ccc(F)c(F)c4)cccc32)C1 (single isomer, unassigned) [Compound 145] has a pEC50 of 5.15.
Work on COC(=O)NC1CCN(C)c2c(C(=O)Nc3ccc(F)c(Cl)c3)cccc21 (single isomer, unassigned) [Compound 178, Methyl (8-((3-chloro-4-fluorophenyl)carbamoyl)-1-methyl-1,2,3,4-tetrahydroquinolin-4-yl)carbamate] yielded a pEC50 of 4.89.
COC(=O)NC1CCN(C)c2c(C(=O)Nc3ccc(F)c(Cl)c3)cccc21 (single isomer, unassigned) [Compound 179, Methyl (8-((3-chloro-4-fluorophenyl)carbamoyl)-1-methyl-1,2,3,4-tetrahydroquinolin-4-yl)carbamate] showed a pEC50 of 6.03.

From patent US11001564B2, “Substituted chromane-8-carboxamide compounds and analogues thereof, and methods using same” (priority 2016, dated 2021)
